# Earlier results, collected in patent US20190167601A1, “APPARATUS AND METHOD FOR ZERO ORDER DRUG DELIVERY FROM MULTILAYER AMPHIPHILIC CO-NETWORKS” (The University of Akron, priority 2016, published 2019).
# Where a name gives a salt, the structure may show the parent alone.
row,SMILES,maximum drug solubility in water
1,CC(C)OC(=O)CCC/C=C\C[C@@H]1[C@@H](CC[C@@H](O)CCc2ccccc2)[C@H](O)C[C@@H]1O [Latanoprost],8000 µg/mL
2,COc1c(N2C[C@@H]3CCCN[C@@H]3C2)c(F)cc2c(=O)c(C(=O)O)cn(C3CC3)c12 [Moxifloxacin Hydrochloride],168 µg/mL
